Measurements reported in the supplement of paper PMC10307832.

Key:
Experiment in all cases: relative viability (nuclei count vs DMSO), 5 days (fraction); higher = more cells survive
LCLC-97TM1 = tested on: LCLC-97TM1
Summary of the method: (§1)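 Lung cancer cell lines were seeded in 1536-well plates and dosed by pin tool the next day, with either a single drug or a fixed anchor-drug dose combined with five library-drug doses (not always all listed) spaced in √10 steps. Five days later, one step fixed the cells and stained their nuclei (final 0.05% Triton X-100, 1% formaldehyde, 1 ug/ml Hoechst), and nuclei were counted on 4× images. Relative viability is the nuclei count in treated wells divided by the count in vehicle wells, and each value is the median of duplicate plates.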

H3255 = tested on: H3255
Summary of the method: as §1

NCI-H522 = tested on: NCI-H522
Summary of the method: as §1

NCI-H3122 = tested on: NCI-H3122
Summary of the method: as §1

NCI-H441 = tested on: NCI-H441
Summary of the method: as §1

EKVX = tested on: EKVX
Summary of the method: as §1

NCI-H1355 = tested on: NCI-H1355
Summary of the method: as §1

HOP-62 = tested on: HOP-62
Summary of the method: as §1

EPLC-272H = tested on: EPLC-272H
Summary of the method: as §1

HCC-827 = tested on: HCC-827
Summary of the method: as §1

NCI-H1993 = tested on: NCI-H1993
Summary of the method: as §1

SW 1573 = tested on: SW 1573
Summary of the method: as §1

LU99A = tested on: LU99A
Summary of the method: as §1

NCI-H2405 = tested on: NCI-H2405
Summary of the method: as §1

NCI-H2170 = tested on: NCI-H2170
Summary of the method: as §1

LXF-289 = tested on: LXF-289
Summary of the method: as §1

SK-LU-1 = tested on: SK-LU-1
Summary of the method: as §1

NCI-H2228 = tested on: NCI-H2228
Summary of the method: as §1

PC-3 [JPC-3] = tested on: PC-3 [JPC-3]
Summary of the method: as §1

LK-2 = tested on: LK-2
Summary of the method: as §1

ChaGo-K-1 = tested on: ChaGo-K-1
Summary of the method: as §1

UMC-11 = tested on: UMC-11
Summary of the method: as §1

NCI-H1650 = tested on: NCI-H1650
Summary of the method: as §1

For `CN1CCN(CCOc2cc(OC3CCOCC3)c3c(Nc4c(Cl)ccc5c4OCO5)ncnc3c2)CC1` [Saracatinib] + Cc1cc(Nc2cc(N3CCN(C)CC3)nc(Sc3ccc(NC(=O)C4CC4)cc3)n2)n[nH]1 [Tozasertib] (partner 0.1 µM), the relative viability (LCLC-97TM1; first compound 0.02 µM) was 0.21, the relative viability (LCLC-97TM1; first compound 0.2 µM) was 0.173 and the relative viability (LCLC-97TM1; first compound 0.6325 µM) was 0.287. The relative viability (LCLC-97TM1; first compound 2 µM) was 0.185, the relative viability (H3255; first compound 0.02 µM) was 0.621 and the relative viability (H3255; first compound 0.2 µM) was 0.585. For the same compound, the relative viability (H3255; first compound 0.6325 µM) was 0.444, the relative viability (H3255; first compound 2 µM) was 0.291 and the relative viability (NCI-H522; first compound 0.02 µM) was 0.557. For the same compound, the relative viability (NCI-H522; first compound 0.6325 µM) was 0.534, the relative viability (NCI-H522; first compound 2 µM) was 0.458 and the relative viability (NCI-H3122; first compound 0.02 µM) was 0.569. For the same compound, the relative viability (NCI-H3122; first compound 0.2 µM) was 0.358, the relative viability (NCI-H3122; first compound 0.6325 µM) was 0.384 and the relative viability (NCI-H3122; first compound 2 µM) was 0.298. It also gave a relative viability (NCI-H441; first compound 0.02 µM) of 0.557, a relative viability (NCI-H441; first compound 0.2 µM) of 0.601 and a relative viability (NCI-H441; first compound 0.6325 µM) of 0.728. The relative viability (NCI-H441; first compound 2 µM) was 0.641, the relative viability (EKVX; first compound 0.02 µM) was 0.357 and the relative viability (EKVX; first compound 0.6325 µM) was 0.366. For the same compound, the relative viability (EKVX; first compound 2 µM) was 0.254, the relative viability (NCI-H1355; first compound 0.02 µM) was 0.532 and the relative viability (NCI-H1355; first compound 0.2 µM) was 0.317. For the same compound, the relative viability (NCI-H1355; first compound 0.6325 µM) was 0.454, the relative viability (NCI-H1355; first compound 2 µM) was 0.36 and the relative viability (HOP-62; first compound 0.02 µM) was 0.367. The relative viability (HOP-62; first compound 0.2 µM) was 0.318, the relative viability (HOP-62; first compound 0.6325 µM) was 0.394 and the relative viability (HOP-62; first compound 2 µM) was 0.384. It also gave a relative viability (EPLC-272H; first compound 0.02 µM) of 0.278, a relative viability (EPLC-272H; first compound 0.2 µM) of 0.34 and a relative viability (EPLC-272H; first compound 0.6325 µM) of 0.179. The relative viability (EPLC-272H; first compound 2 µM) was 0.157, the relative viability (HCC-827; first compound 0.02 µM) was 0.404 and the relative viability (HCC-827; first compound 0.2 µM) was 0.311. The relative viability (HCC-827; first compound 0.6325 µM) was 0.171, the relative viability (HCC-827; first compound 2 µM) was 0.11 and the relative viability (NCI-H1993; first compound 0.02 µM) was 0.6. It also gave a relative viability (NCI-H1993; first compound 0.2 µM) of 0.559, a relative viability (NCI-H1993; first compound 0.6325 µM) of 0.569 and a relative viability (NCI-H1993; first compound 2 µM) of 0.576. The relative viability (SW 1573; first compound 0.02 µM) was 0.142, the relative viability (SW 1573; first compound 0.2 µM) was 0.207 and the relative viability (SW 1573; first compound 0.6325 µM) was 0.189. It also gave a relative viability (SW 1573; first compound 2 µM) of 0.188, a relative viability (LU99A; first compound 0.02 µM) of 0.26 and a relative viability (LU99A; first compound 0.2 µM) of 0.249. The relative viability (LU99A; first compound 0.6325 µM) was 0.226, the relative viability (LU99A; first compound 2 µM) was 0.217 and the relative viability (NCI-H2405; first compound 0.02 µM) was 0.778. For the same compound, the relative viability (NCI-H2405; first compound 0.2 µM) was 0.661, the relative viability (NCI-H2405; first compound 0.6325 µM) was 0.706 and the relative viability (NCI-H2405; first compound 2 µM) was 0.521. It also gave a relative viability (NCI-H2170; first compound 0.02 µM) of 0.736, a relative viability (NCI-H2170; first compound 0.2 µM) of 0.371 and a relative viability (NCI-H2170; first compound 0.6325 µM) of 0.723. The relative viability (NCI-H2170; first compound 2 µM) was 0.429, the relative viability (LXF-289; first compound 0.02 µM) was 0.205 and the relative viability (LXF-289; first compound 0.2 µM) was 0.183. The relative viability (LXF-289; first compound 0.6325 µM) was 0.164, the relative viability (LXF-289; first compound 2 µM) was 0.0819 and the relative viability (SK-LU-1; first compound 0.02 µM) was 0.354. It also gave a relative viability (SK-LU-1; first compound 0.2 µM) of 0.231, a relative viability (SK-LU-1; first compound 0.6325 µM) of 0.172 and a relative viability (SK-LU-1; first compound 2 µM) of 0.132. It also gave a relative viability (NCI-H2228; first compound 0.02 µM) of 0.222, a relative viability (NCI-H2228; first compound 0.2 µM) of 0.148 and a relative viability (NCI-H2228; first compound 0.6325 µM) of 0.213. It also gave a relative viability (NCI-H2228; first compound 2 µM) of 0.154, a relative viability (PC-3 [JPC-3]; first compound 0.02 µM) of 0.933 and a relative viability (PC-3 [JPC-3]; first compound 0.2 µM) of 0.824. For the same compound, the relative viability (PC-3 [JPC-3]; first compound 0.6325 µM) was 0.834, the relative viability (PC-3 [JPC-3]; first compound 2 µM) was 0.469 and the relative viability (LK-2; first compound 0.02 µM) was 0.205. The relative viability (LK-2; first compound 0.2 µM) was 0.188, the relative viability (LK-2; first compound 0.6325 µM) was 0.204 and the relative viability (LK-2; first compound 2 µM) was 0.193. It also gave a relative viability (ChaGo-K-1; first compound 0.02 µM) of 0.24, a relative viability (ChaGo-K-1; first compound 0.2 µM) of 0.233 and a relative viability (ChaGo-K-1; first compound 0.6325 µM) of 0.218. For the same compound, the relative viability (ChaGo-K-1; first compound 2 µM) was 0.198, the relative viability (UMC-11; first compound 0.02 µM) was 0.206 and the relative viability (UMC-11; first compound 0.2 µM) was 0.175. The relative viability (UMC-11; first compound 0.6325 µM) was 0.213, the relative viability (UMC-11; first compound 2 µM) was 0.185 and the relative viability (NCI-H1650; first compound 0.02 µM) was 0.435. The relative viability (NCI-H1650; first compound 0.2 µM) was 0.294, the relative viability (NCI-H1650; first compound 0.6325 µM) was 0.22 and the relative viability (NCI-H1650; first compound 2 µM) was 0.204.
